{"source": "patent US7118895B2", "about": "“Process for producing aglycon by using diglycosidase and flavor-improved food containing the aglycon and converting agent to be used in the process” (Amano Enzyme Inc., priority 2000, dated 2006)", "system": "Crude diglycosidase", "assay": "Examination of pH in the conversion into isoflavone aglycons by diglycosidase using soybean materials", "type": "biochemical, Penicillium multicolor IAM7153", "conditions": "for existing ratio of aglycon of each isoflavone family / Decomposition efficiency of glycitin family in roasted soy flour / Decomposition efficiency of glycitin family in soymilk: 55° C.", "procedure": "A substrate solution of 450 μL was prepared by suspending 50 mg of each soybean material (roasted soy flour (manufactured by Fuji Shokuryo K.K.), soymilk (manufactured by Gitoh Shokuhin K.K.), defatted soybean (manufactured by Fuji Seiyu K.K.), concentrated soybean protein (manufactured by Fuji Seiyu K.K.)), and adjusting the pH to 2 to 11 with hydrochloric acid or sodium hydroxide. Each enzyme solution of pH 2–11 wherein diglycosidase activity of crude diglycosidase was adjusted to 1.88 AU/mL was added thereto in an amount of 50 μL and the whole was reacted at 55° C. at the total volume of 500 μL. To the reaction mixture was added 700 μL of ethanol after 0, 1, 3, and 6 hours of the reaction. After stirring and ultrasonication, the mixture was subjected to centrifugal separation at 15,000 rpm and 4° C. for 10 minutes. The supernatant was filtered through a filter and the existence of isoflavone glycosides and aglycon isoflavones contained in the reaction mixture was detected by HLPC (Tables 15 to 26).", "data": [{"smiles": "COc1cc2c(=O)c(-c3ccc(O)cc3)coc2cc1O", "note": "[glycitein]", "values": [{"measurement": "existing ratio of aglycon of each isoflavone family", "setting": "concentrated soybean protein, pH 3.7 for 6 hours", "value": 78, "unit": "%"}, {"measurement": "existing ratio of aglycon of each isoflavone family", "setting": "defatted soybean, pH 3.4 for 6 hours", "value": 68, "unit": "%"}, {"measurement": "Decomposition efficiency of glycitin family in concentrated soybean protein", "setting": "pH1.6, heat treatment of enzyme: no, reaction time 0 h", "value": 11.3, "unit": "%"}, {"measurement": "Decomposition efficiency of glycitin family in concentrated soybean protein", "setting": "pH1.6, heat treatment of enzyme: no, reaction time 1 h", "value": 11.6, "unit": "%"}, {"measurement": "Decomposition efficiency of glycitin family in concentrated soybean protein", "setting": "pH1.6, heat treatment of enzyme: no, reaction time 3 h", "value": 11.7, "unit": "%"}, {"measurement": "Decomposition efficiency of glycitin family in concentrated soybean protein", "setting": "pH1.6, heat treatment of enzyme: no, reaction time 6 h", "value": 11.7, "unit": "%"}, {"measurement": "Decomposition efficiency of glycitin family in concentrated soybean protein", "setting": "pH1.6, heat treatment of enzyme: yes, reaction time 6 h", "value": 10.8, "unit": "%"}, {"measurement": "Decomposition efficiency of glycitin family in roasted soy flour", "setting": "pH2, heat treatment of enzyme no, reaction time 0 h", "value": 7.9}, {"measurement": "Decomposition efficiency of glycitin family in roasted soy flour", "setting": "pH2, heat treatment of enzyme no, reaction time 1 h", "value": 9.4}, {"measurement": "Decomposition efficiency of glycitin family in roasted soy flour", "setting": "pH2, heat treatment of enzyme no, reaction time 3 h", "value": 9.5}, {"measurement": "Decomposition efficiency of glycitin family in roasted soy flour", "setting": "pH2, heat treatment of enzyme no, reaction time 6 h", "value": 10.1}, {"measurement": "Decomposition efficiency of glycitin family in roasted soy flour", "setting": "pH2, heat treatment of enzyme yes, reaction time 6 h", "value": 10.4}, {"measurement": "Decomposition efficiency of glycitin family in soymilk", "setting": "pH2.3, heat treatment of enzyme no, reaction time 0 h", "value": 7.2}, {"measurement": "Decomposition efficiency of glycitin family in soymilk", "setting": "pH2.3, heat treatment of enzyme no, reaction time 1 h", "value": 48.7}, {"measurement": "Decomposition efficiency of glycitin family in soymilk", "setting": "pH2.3, heat treatment of enzyme no, reaction time 3 h", "value": 52.3}, {"measurement": "Decomposition efficiency of glycitin family in soymilk", "setting": "pH2.3, heat treatment of enzyme no, reaction time 6 h", "value": 53.5}, {"measurement": "Decomposition efficiency of glycitin family in soymilk", "setting": "pH2.3, heat treatment of enzyme yes, reaction time 6 h", "value": 6.9}, {"measurement": "Decomposition efficiency of glycitin family in defatted soybean", "setting": "pH2.6, heat treatment of enzyme: no, reaction time 0 h", "value": "not detected"}, {"measurement": "Decomposition efficiency of glycitin family in defatted soybean", "setting": "pH2.6, heat treatment of enzyme: no, reaction time 1 h", "value": "not detected"}, {"measurement": "Decomposition efficiency of glycitin family in defatted soybean", "setting": "pH2.6, heat treatment of enzyme: no, reaction time 3 h", "value": "not detected"}, {"measurement": "Decomposition efficiency of glycitin family in defatted soybean", "setting": "pH2.6, heat treatment of enzyme: no, reaction time 6 h", "value": "not detected"}, {"measurement": "Decomposition efficiency of glycitin family in defatted soybean", "setting": "pH2.6, heat treatment of enzyme: yes, reaction time 6 h", "value": "not detected"}, {"measurement": "Decomposition efficiency of glycitin family in concentrated soybean protein", "setting": "pH2.7, heat treatment of enzyme: no, reaction time 0 h", "value": 11.3, "unit": "%"}, {"measurement": "Decomposition efficiency of glycitin family in concentrated soybean protein", "setting": "pH2.7, heat treatment of enzyme: no, reaction time 1 h", "value": 25.0, "unit": "%"}, {"measurement": "Decomposition efficiency of glycitin family in concentrated soybean protein", "setting": "pH2.7, heat treatment of enzyme: no, reaction time 3 h", "value": 25.7, "unit": "%"}, {"measurement": "Decomposition efficiency of glycitin family in concentrated soybean protein", "setting": "pH2.7, heat treatment of enzyme: no, reaction time 6 h", "value": 29.2, "unit": "%"}, {"measurement": "Decomposition efficiency of glycitin family in concentrated soybean protein", "setting": "pH2.7, heat treatment of enzyme: yes, reaction time 6 h", "value": 11.5, "unit": "%"}, {"measurement": "Decomposition efficiency of glycitin family in roasted soy flour", "setting": "pH3, heat treatment of enzyme no, reaction time 0 h", "value": 7.9}, {"measurement": "Decomposition efficiency of glycitin family in roasted soy flour", "setting": "pH3, heat treatment of enzyme no, reaction time 1 h", "value": 61.3}, {"measurement": "Decomposition efficiency of glycitin family in roasted soy flour", "setting": "pH3, heat treatment of enzyme no, reaction time 3 h", "value": 69.2}, {"measurement": "Decomposition efficiency of glycitin family in roasted soy flour", "setting": "pH3, heat treatment of enzyme no, reaction time 6 h", "value": 68.3}, {"measurement": "Decomposition efficiency of glycitin family in roasted soy flour", "setting": "pH3, heat treatment of enzyme yes, reaction time 6 h", "value": 9.3}, {"measurement": "Decomposition efficiency of glycitin family in defatted soybean", "setting": "pH3.4, heat treatment of enzyme: no, reaction time 0 h", "value": "not detected"}, {"measurement": "Decomposition efficiency of glycitin family in defatted soybean", "setting": "pH3.4, heat treatment of enzyme: no, reaction time 1 h", "value": "not detected"}, {"measurement": "Decomposition efficiency of glycitin family in defatted soybean", "setting": "pH3.4, heat treatment of enzyme: no, reaction time 3 h", "value": "not detected"}, {"measurement": "Decomposition efficiency of glycitin family in defatted soybean", "setting": "pH3.4, heat treatment of enzyme: no, reaction time 6 h", "value": "not detected"}, {"measurement": "Decomposition efficiency of glycitin family in defatted soybean", "setting": "pH3.4, heat treatment of enzyme: yes, reaction time 6 h", "value": "not detected"}, {"measurement": "Decomposition efficiency of glycitin family in soymilk", "setting": "pH3.5, heat treatment of enzyme no, reaction time 0 h", "value": 7.2}, {"measurement": "Decomposition efficiency of glycitin family in soymilk", "setting": "pH3.5, heat treatment of enzyme no, reaction time 1 h", "value": 78.1}, {"measurement": "Decomposition efficiency of glycitin family in soymilk", "setting": "pH3.5, heat treatment of enzyme no, reaction time 3 h", "value": 100.0}, {"measurement": "Decomposition efficiency of glycitin family in soymilk", "setting": "pH3.5, heat treatment of enzyme no, reaction time 6 h", "value": 100.0}, {"measurement": "Decomposition efficiency of glycitin family in soymilk", "setting": "pH3.5, heat treatment of enzyme yes, reaction time 6 h", "value": 7.6}, {"measurement": "Decomposition efficiency of glycitin family in concentrated soybean protein", "setting": "pH3.7, heat treatment of enzyme: no, reaction time 0 h", "value": 11.1, "unit": "%"}, {"measurement": "Decomposition efficiency of glycitin family in concentrated soybean protein", "setting": "pH3.7, heat treatment of enzyme: no, reaction time 1 h", "value": 66.7, "unit": "%"}, {"measurement": "Decomposition efficiency of glycitin family in concentrated soybean protein", "setting": "pH3.7, heat treatment of enzyme: no, reaction time 3 h", "value": 73.5, "unit": "%"}, {"measurement": "Decomposition efficiency of glycitin family in concentrated soybean protein", "setting": "pH3.7, heat treatment of enzyme: no, reaction time 6 h", "value": 77.5, "unit": "%"}, {"measurement": "Decomposition efficiency of glycitin family in concentrated soybean protein", "setting": "pH3.7, heat treatment of enzyme: yes, reaction time 6 h", "value": 11.3, "unit": "%"}, {"measurement": "Decomposition efficiency of glycitin family in roasted soy flour", "setting": "pH4, heat treatment of enzyme no, reaction time 0 h", "value": 8.6}, {"measurement": "Decomposition efficiency of glycitin family in roasted soy flour", "setting": "pH4, heat treatment of enzyme no, reaction time 1 h", "value": 81.2}, {"measurement": "Decomposition efficiency of glycitin family in roasted soy flour", "setting": "pH4, heat treatment of enzyme no, reaction time 3 h", "value": 91.8}, {"measurement": "Decomposition efficiency of glycitin family in roasted soy flour", "setting": "pH4, heat treatment of enzyme no, reaction time 6 h", "value": 100.0}, {"measurement": "Decomposition efficiency of glycitin family in roasted soy flour", "setting": "pH4, heat treatment of enzyme yes, reaction time 6 h", "value": 9.0}, {"measurement": "Decomposition efficiency of glycitin family in soymilk", "setting": "pH4.8, heat treatment of enzyme no, reaction time 0 h", "value": 6.2}, {"measurement": "Decomposition efficiency of glycitin family in soymilk", "setting": "pH4.8, heat treatment of enzyme no, reaction time 1 h", "value": 63.0}, {"measurement": "Decomposition efficiency of glycitin family in soymilk", "setting": "pH4.8, heat treatment of enzyme no, reaction time 3 h", "value": 78.9}, {"measurement": "Decomposition efficiency of glycitin family in soymilk", "setting": "pH4.8, heat treatment of enzyme no, reaction time 6 h", "value": 91.7}, {"measurement": "Decomposition efficiency of glycitin family in soymilk", "setting": "pH4.8, heat treatment of enzyme yes, reaction time 6 h", "value": 6.5}, {"measurement": "Decomposition efficiency of glycitin family in defatted soybean", "setting": "pH4.8, heat treatment of enzyme: no, reaction time 0 h", "value": 36.0, "unit": "%"}, {"measurement": "Decomposition efficiency of glycitin family in defatted soybean", "setting": "pH4.8, heat treatment of enzyme: no, reaction time 1 h", "value": 59.9, "unit": "%"}, {"measurement": "Decomposition efficiency of glycitin family in defatted soybean", "setting": "pH4.8, heat treatment of enzyme: no, reaction time 3 h", "value": 62.5, "unit": "%"}, {"measurement": "Decomposition efficiency of glycitin family in defatted soybean", "setting": "pH4.8, heat treatment of enzyme: no, reaction time 6 h", "value": 68.1, "unit": "%"}, {"measurement": "Decomposition efficiency of glycitin family in defatted soybean", "setting": "pH4.8, heat treatment of enzyme: yes, reaction time 6 h", "value": 43.8, "unit": "%"}]}]}
